Laboratory results as given in ChEMBL document CHEMBL1201862, “PubChem BioAssay data set” (2004).
“And” between values parts separate entries of the source, which are not always exact repeats. Identical values can stand only once.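 All cell lines were grown in 96-well plates and treated with compound for 48 hours. Abbreviation: GI50, concentration required for 50% inhibition of growth.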 The source made the active and inactive calls. No stated cut-off is given here; in the data, active = GI50 up to about 1.1 µM and inactive = higher.

Assays:
Test in all cases: NCI anticancer screen, dose series, 48 h
NCI-H460 = system: NCI-H460
K562 = system: K562
SF-268 = system: SF-268
RXF 393 = system: RXF 393
HCT-15 = system: HCT-15
SNB-19 = system: SNB-19
ACHN = system: ACHN
A549 = system: A549
DU-145 = system: DU-145
786-0 = system: 786-0
IGROV-1 = system: IGROV-1
Hs-578T = system: Hs-578T
NCI-H226 = system: NCI-H226
CAKI-1 = system: CAKI-1
NCI/ADR-RES = system: NCI/ADR-RES
SNB-75 = system: SNB-75
U-251 = system: U-251
HOP-62 = system: HOP-62
HOP-92 = system: HOP-92
SN12C = system: SN12C
HL-60 = system: HL-60
MCF7 = system: MCF7
A498 = system: A498
SK-MEL-28 = system: SK-MEL-28
HCT-116 = system: HCT-116
T47D = system: T47D
HCC 2998 = system: HCC 2998
MOLT-4 = system: MOLT-4
MDA-MB-231 = system: MDA-MB-231
SF-539 = system: SF-539
HT-29 = system: HT-29
TK-10 = system: TK-10
SK-MEL-2 = system: SK-MEL-2
MDA-MB-435 = system: MDA-MB-435
OVCAR-4 = system: OVCAR-4
PC-3 = system: PC-3
EKVX = system: EKVX
BT-549 = system: BT-549
UACC-62 = system: UACC-62
SF-295 = system: SF-295
RPMI-8226 = system: RPMI-8226
OVCAR-3 = system: OVCAR-3
Malme-3M = system: Malme-3M
OVCAR-5 = system: OVCAR-5
KM12 = system: KM12
CCRF-CEM = system: CCRF-CEM
OVCAR-8 = system: OVCAR-8
NCI-H522 = system: NCI-H522
UO-31 = system: UO-31
LOX IMVI = system: LOX IMVI
SK-MEL-5 = system: SK-MEL-5
SW-620 = system: SW-620
NCI-H23 = system: NCI-H23
UACC-257 = system: UACC-257
M14 = system: M14
COLO 205 = system: COLO 205

Measured: GI50

CC(=O)OCC1OC(n2c(S)c(C#N)c(-c3ccccc3)c(C#N)c2=O)C(OC(C)=O)C(OC(C)=O)C1OC(C)=O (stereo not given)
> 100 µM: HCT-15
inactive: NCI-H460 50.2 µM and > 88.7 µM | K562 > 100 µM | SF-268 21.8 µM and 33 µM | RXF 393 19.5 µM and 18.5 µM | SNB-19 32.2 µM | ACHN 54.1 µM and 78.5 µM | A549 > 100 µM | DU-145 58.3 µM | 786-0 30 µM and 33.9 µM | IGROV-1 53 µM | Hs-578T 38.8 µM | NCI-H226 > 87.7 µM | CAKI-1 50.8 µM and 61.9 µM | NCI/ADR-RES > 100 µM | SNB-75 26.2 µM and 20.1 µM | U-251 23.8 µM and 35.2 µM | HOP-62 21.7 µM and 21.9 µM | HOP-92 31.3 µM and 16.6 µM

O=C1CCc2c3c(c4c([nH]c5ccccc54)c2CC1)C(=O)NC3=O
2.7 µM: HCT-15
active: HL-60 0.671 µM | MOLT-4 0.774 µM | ACHN 1.01 µM | KM12 0.0942 µM | NCI-H522 0.766 µM | UO-31 0.998 µM | IGROV-1 0.893 µM | SW-620 0.815 µM | SNB-75 26.5 nM | COLO 205 0.63 µM
inactive: SN12C 4.32 µM | NCI-H460 1.58 µM | MCF7 2.97 µM | A498 2.22 µM | SK-MEL-28 3.14 µM | HCT-116 2.05 µM | T47D 1.46 µM | K562 1.19 µM | SF-268 7.85 µM | HCC 2998 27.9 µM | RXF 393 1.91 µM | MDA-MB-231 25.3 µM | SF-539 5.36 µM | HT-29 3.53 µM | TK-10 10.2 µM | SK-MEL-2 2.7 µM | MDA-MB-435 1.31 µM | OVCAR-4 2.08 µM | SNB-19 3.94 µM | PC-3 2.05 µM | EKVX 11.1 µM | BT-549 7.46 µM | UACC-62 4.45 µM | A549 7.05 µM | SF-295 6.01 µM | DU-145 9.98 µM | RPMI-8226 3.38 µM | OVCAR-3 3.51 µM | Malme-3M 3.48 µM | OVCAR-5 34.1 µM | 786-0 11.7 µM | CCRF-CEM 2 µM | OVCAR-8 6.87 µM | Hs-578T 2.08 µM | NCI-H226 3.32 µM | LOX IMVI 1.18 µM | SK-MEL-5 1.91 µM | CAKI-1 2.02 µM | NCI/ADR-RES 16.4 µM | U-251 4.55 µM | HOP-62 12.3 µM | NCI-H23 8.93 µM | UACC-257 5.05 µM | M14 5.05 µM | HOP-92 18.6 µM
